Patent US6555692B1, “Preparation and use of bifunctional molecules having DNA sequence binding specificity” (California Institute of Technology, priority 1996, dated 2003)

Assays:
5′-gcggtTGTCAacccg-3′ = experiment: Recognition of 9-11 base pairs (Table 9); type: binding; settings: 22° C. and pH 7.0
Description: (§1) Table 9 illustrates recognition of recognition of 9-11 base pairs by ImPyPy-X-ImPyPy-β-Dp.

5′-TGTCAGACA-3′ = experiment: Recognition of 9-11 base pairs (Table 9); type: binding; settings: 22° C. and pH 7.0
Description: as §1

5′-TGTCAAGACA-3′ = experiment: Recognition of 9-11 base pairs (Table 9); type: binding; settings: 22° C. and pH 7.0
Description: as §1

5′-TGTCAAAGACA-3′ = experiment: Recognition of 9-11 base pairs (Table 9); type: binding; settings: 22° C. and pH 7.0
Description: as §1

5′-AACCAAGTACTTGGTA-3′ = experiment: Association constants, recognition of 16 base pairs; type: binding; settings: for Specificity 5′-AACCAACTAGTTGGTA: Table 8, center mismatch; for Specificity 5′-AACCAAGTACTTGCGA: Table 8, edge mismatch; for Ka 5′-AACCAAGTACTTGGTA: Table 8, match site
Description: Table 8 illustrates recognition of 16 Base-Pairs by ImPyPyPy-X-ImImPy-γ-PyPyPy-β-Dp.

5′-TGTTA-3′ = settings: cited from earlier work

Molecule	5′-gcggtTGTCAacccg-3′ (5′-gcggtTGTCAacccg-3′)	5′-TGTCAGACA-3′ (5′-TGTCAGACA-3′)	5′-TGTCAAGACA-3′ (5′-TGTCAAGACA-3′)	5′-TGTCAAAGACA-3′ (5′-TGTCAAAGACA-3′)	further results
CN(C)CCCNC(=O)CCNC(=O)c1cc(NC(=O)c2cc(NC(=O)c3nc(NC(=O)CCCCCNC(=O)c4cc(NC(=O)c5cc(NC(=O)c6nccn6C)cn5C)cn4C)cn3C)cn2C)cn1C [ImPyPy-C6-ImPyPy-β-Dp]	5 × 10^7	1 × 10^8	2 × 10^8	5 × 10^7	
CN(C)CCCNC(=O)CCNC(=O)c1cc(NC(=O)c2cc(NC(=O)c3nc(NC(=O)CCCCCCNC(=O)c4cc(NC(=O)c5cc(NC(=O)c6nccn6C)cn5C)cn4C)cn3C)cn2C)cn1C [ImPyPy-C7-ImPyPy-β-Dp]	7 × 10^7	2 × 10^7	1 × 10^8	3 × 10^7	
CN(C)CCCNC(=O)CCNC(=O)c1cc(NC(=O)c2cc(NC(=O)c3nc(NC(=O)CCCCCCCNC(=O)c4cc(NC(=O)c5cc(NC(=O)c6nccn6C)cn5C)cn4C)cn3C)cn2C)cn1C [ImPyPy-C8-ImPyPy-β-Dp]	1 × 10^7	1 × 10^7	3 × 10^7	1 × 10^7	
CN(C)CCCNC(=O)CCNC(=O)c1cc(NC(=O)c2cc(NC(=O)c3nc(NC(=O)CCCCCCCCCCNC(=O)c4cc(NC(=O)c5cc(NC(=O)c6nccn6C)cn5C)cn4C)cn3C)cn2C)cn1C [ImPyPy-C11-ImPyPy-β-Dp]	1 × 10^7	5 × 10^6	2 × 10^7	2 × 10^7	
CN(C)CCCNC(=O)CCNC(=O)c1cc(NC(=O)c2cc(NC(=O)c3nc(NC(=O)CNC(=O)c4cc(NC(=O)c5cc(NC(=O)c6nccn6C)cn5C)cn4C)cn3C)cn2C)cn1C [ImPyPy-G-ImPyPy-β-Dp]	3 × 10^7	1 × 10^8	3 × 10^7	3 × 10^7	
CN(C)CCCNC(=O)CCNC(=O)c1cc(NC(=O)c2cc(NC(=O)c3nc(NC(=O)CCNC(=O)c4cc(NC(=O)c5cc(NC(=O)c6nccn6C)cn5C)cn4C)cn3C)cn2C)cn1C [ImPyPy-β-ImPyPy-β-Dp]	1 × 10^9	2 × 10^8	2 × 10^8	1 × 10^9	
CN(C)CCCNC(=O)CCNC(=O)c1cc(NC(=O)c2cc(NC(=O)c3nc(NC(=O)CCNC(=O)c4cc(NC(=O)CCNC(=O)c5cc(NC(=O)c6cc(NC(=O)c7nccn7C)cn6C)cn5C)cn4C)cn3C)cn2C)cn1C [ImPyPy-β-Py-β-ImPyPy-β-Dp]		3 × 10^8	2 × 10^8	1 × 10^9	Ka (5′-gcggtTGTCAacccg-3′): < 1e+08 M⁻¹
CN(C)CCCNC(=O)CCNC(=O)c1cc(NC(=O)c2cc(NC(=O)c3cc(NC(=O)CCNC(=O)c4cc(NC(=O)c5cc(NC(=O)c6nccn6C)cn5C)cn4C)cn3C)cn2C)cn1C [ImPyPy-β-PyPyPy-β-Dp]	3 × 10^7	2 × 10^8	5 × 10^7	5 × 10^7	
CN(C)CCCNC(=O)CCNC(=O)c1cc(NC(=O)c2cc(NC(=O)c3nc(NC(=O)CCNC(=O)CCNC(=O)c4cc(NC(=O)c5cc(NC(=O)c6nccn6C)cn5C)cn4C)cn3C)cn2C)cn1C [ImPyPy-β-β-ImPyPy-β-Dp]	2 × 10^7	1 × 10^7	5 × 10^7	1 × 10^7	
CN(C)CCCNC(=O)CCNC(=O)c1cc(NC(=O)c2cc(NC(=O)c3nc(NC(=O)CCNC(=O)CCNC(=O)CCNC(=O)c4cc(NC(=O)c5cc(NC(=O)c6nccn6C)cn5C)cn4C)cn3C)cn2C)cn1C [ImPyPy-β-β-β-ImPyPy-β-Dp]	1 × 10^7	1 × 10^7	1 × 10^7	7 × 10^7	
CN(C)CCCNC(=O)CCNC(=O)c1cc(NC(=O)c2cc(NC(=O)c3nc(NC(=O)CCCNC(=O)c4cc(NC(=O)c5cc(NC(=O)c6nccn6C)cn5C)cn4C)cn3C)cn2C)cn1C [ImPyPy-γ-ImPyPy-β-Dp]	2 × 10^8	5 × 10^7	1 × 10^8	1 × 10^8	
CN(C)CCCNC(=O)CCNC(=O)c1cc(NC(=O)c2cc(NC(=O)c3cc(NC(=O)CCCNC(=O)c4cc(NC(=O)c5nc(NC(=O)c6nc(NC(=O)CCCCNC(=O)c7cc(NC(=O)c8cc(NC(=O)c9cc(NC(=O)c%10nccn%10C)cn9C)cn8C)cn7C)cn6C)cn5C)cn4C)cn3C)cn2C)cn1C [ImPyPyPy-C5-ImImPy-γ-PyPyPy-β-Dp]					Specificity 5′-AACCAACTAGTTGGTA (5′-AACCAAGTACTTGGTA-3′): >3; Specificity 5′-AACCAAGTACTTGCGA (5′-AACCAAGTACTTGGTA-3′): >3; Ka 5′-AACCAAGTACTTGGTA (5′-AACCAAGTACTTGGTA-3′): 7 × 10^8
CN(C)CCCNC(=O)CCNC(=O)c1cc(NC(=O)c2cc(NC(=O)c3cc(NC(=O)CCCNC(=O)c4cc(NC(=O)c5nc(NC(=O)c6nc(NC(=O)CCCCCNC(=O)c7cc(NC(=O)c8cc(NC(=O)c9cc(NC(=O)c%10nccn%10C)cn9C)cn8C)cn7C)cn6C)cn5C)cn4C)cn3C)cn2C)cn1C [ImPyPyPy-C6-ImImPy-γ-PyPyPy-β-Dp]					Specificity 5′-AACCAACTAGTTGGTA (5′-AACCAAGTACTTGGTA-3′): 1; Specificity 5′-AACCAAGTACTTGCGA (5′-AACCAAGTACTTGGTA-3′): 1; Ka 5′-AACCAAGTACTTGGTA (5′-AACCAAGTACTTGGTA-3′): 1 × 10^8
CN(C)CCCNC(=O)CCNC(=O)c1cc(NC(=O)c2cc(NC(=O)c3cc(NC(=O)CCCNC(=O)c4cc(NC(=O)c5nc(NC(=O)c6nc(NC(=O)CCNC(=O)CCNC(=O)c7cc(NC(=O)c8cc(NC(=O)c9cc(NC(=O)c%10nccn%10C)cn9C)cn8C)cn7C)cn6C)cn5C)cn4C)cn3C)cn2C)cn1C [ImPyPyPy-β-β-ImImPy-γ-PyPyPy-β-Dp]					Specificity 5′-AACCAACTAGTTGGTA (5′-AACCAAGTACTTGGTA-3′): 1; Specificity 5′-AACCAAGTACTTGCGA (5′-AACCAAGTACTTGGTA-3′): 1; Ka 5′-AACCAAGTACTTGGTA (5′-AACCAAGTACTTGGTA-3′): 3 × 10^8
ImPyPy-γ-PyPyPy-Dp					sequence-specificity versus single base pair mismatch sites (5′-TGTTA-3′): 30 fold
cyclo-(ImPyPy-γ-PyPyPy-γ-)					equilibrium association constant Ka (5′-TGTTA-3′; 5′-TGTTA-3′ target site, prior art): 2.9e+09 M⁻¹; increase in Ka relative to the corresponding hairpin polyamide ImPyPy-γ-PyPyPy (5′-TGTTA-3′; 5′-TGTTA-3′): 40 fold; sequence-specificity versus single base pair mismatch sites (5′-TGTTA-3′): 2 fold
